The values below come from ChEMBL document CHEMBL1201862, “PubChem BioAssay data set” (2004).

SMILES strings stand for the structures.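 Protocol summary: plate cells (96-well), add compound at 5 concentrations, incubate 48 h, interpolate endpoints linearly. GI50: concentration for 50% inhibition of growth.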 The source made the active and inactive calls. Cut-off read from the data, not from the text of the source: active = GI50 up to about 1.1 µM and inactive = higher. A value given as a limit tells only on which side of the number the result lay.

Some test systems named below: SF-295; PC-3; EKVX; RPMI-8226; M14; Hs-578T; NCI-H522; MDA-N; UACC-257; 786-0; KM12; HOP-62; UACC-62; K562; SNB-19; A549; SF-539; MDA-MB-231; DU-145; MOLT-4.
What all share (assay): NCI tumour cell line growth inhibition, 48 h

Take `CNC/C(Cl)=N/S(=O)(=O)c1ccc(C)cc1`: the GI50 in the assay on SF-295 was 14.7 µM (inactive); with PC-3, 9.59 µM (inactive); in the assay with EKVX, 15.6 µM (inactive); in the assay with RPMI-8226, 6.61 µM (inactive); with M14, 10.3 µM (inactive); with Hs-578T, 28.8 µM (inactive). In addition, the GI50 in the assay on NCI-H522 was 6.58 µM (inactive); in the assay on MDA-N, 6.85 µM (inactive); in the assay on UACC-257, 9.27 µM (inactive); in the assay on 786-0 it was 9.93 µM (inactive); in the assay on KM12, 13.8 µM (inactive); in the assay on HOP-62, 14 µM (inactive). Further, the GI50 is 9.64 µM (inactive) in the assay on UACC-62; 36.1 µM (inactive) in the assay with K562; 20.4 µM (inactive) in the assay on SNB-19; 13.2 µM (inactive) with A549; 9.71 µM (inactive) in the assay with SF-539; 13.7 µM (inactive) in the assay with MDA-MB-231. Further, in the assay with DU-145, the GI50 is 5.07 µM (inactive).
Turning to `CCOC(=O)C(NC(=O)CC(C)C)(N1CCN(c2cc3c(cc2F)c(=O)c(C(=O)O)cn3C2CC2)CC1)C(F)(F)F` (stereo not given), the GI50 was 21.3 µM (inactive) with SF-295; 5.71 µM (inactive) with MOLT-4; 15 µM (inactive) with PC-3; 23.4 µM (inactive) in the assay on EKVX; 20.9 µM (inactive) in the assay on RPMI-8226; 20 µM (inactive) in the assay with M14. For the same molecule, the GI50 in the assay on Hs-578T was 21.8 µM (inactive); in the assay on NCI-H522 it was 2.73 µM (inactive); in the assay with MDA-N, 20.3 µM (inactive); in the assay with UACC-257, 16.7 µM (inactive); in the assay with 786-0 it was 29.5 µM (inactive); in the assay on KM12, 13.6 µM (inactive). Moreover, the GI50 in the assay with HOP-62 is 36.6 µM (inactive); with UACC-62, 15.2 µM (inactive); with K562, 11 µM (inactive); in the assay with SNB-19 it was 28.8 µM (inactive); in the assay on A549 it was 27.5 µM (inactive); with SF-539, 17.5 µM (inactive). The GI50 is 22 µM (inactive) in the assay with MDA-MB-231 and 34.4 µM (inactive) in the assay on DU-145.
In the case of `O=C(O)[C@H]1NC[C@@H]2ON=C(Br)[C@@H]21`, the GI50 in the assay on SF-295, in the assay with MOLT-4, with PC-3, with EKVX, with RPMI-8226 and in the assay on M14 was > 100 µM (inactive) throughout. Besides, the GI50 in the assay on Hs-578T, with NCI-H522, with MDA-N, in the assay on UACC-257, in the assay with 786-0 and in the assay with KM12 was > 100 µM (inactive) in each case. The GI50 in the assay on HOP-62, in the assay on UACC-62, in the assay with K562, with SNB-19, in the assay with A549 and with SF-539 was > 100 µM (inactive) each time. Further, the GI50 in the assay on MDA-MB-231 and in the assay on DU-145 was > 100 µM (inactive) each time.
For the molecule `O=C(CC(=O)Nc1ccccc1)NNC(Sc1ccccc1)c1cc(/N=N/c2ccc(Br)cc2)ccc1O` (stereo not given), the GI50 in the assay on SF-295 is 3.85 µM (inactive); with MOLT-4 it was 0.0916 µM (active); with PC-3, 1.45 µM (inactive); in the assay on EKVX, 8.83 µM (inactive); in the assay with RPMI-8226 it was 4.2 µM (inactive); in the assay with M14 it was 0.973 µM (active). Besides, the GI50 in the assay with Hs-578T is > 10 µM (inactive); in the assay on NCI-H522, 4.81 µM (inactive); with MDA-N, 2.41 µM (inactive); in the assay on UACC-257 it was 4.29 µM (inactive); with 786-0, 0.802 µM (active); in the assay with KM12, 4.07 µM (inactive). In addition, the GI50 in the assay on HOP-62 is 3.08 µM (inactive); in the assay on UACC-62, 2.09 µM (inactive); with K562, 2.54 µM (inactive); with SNB-19 it was > 10 µM (inactive); in the assay on A549 it was 3.85 µM (inactive); in the assay with SF-539, 1.66 µM (inactive). For the same molecule, the GI50 in the assay with MDA-MB-231 is 2.24 µM (inactive); in the assay on DU-145, 2.11 µM (inactive).
Take `COc1ccc(C(CC(=O)C(C)(C)CN2CCCCC2)SCCS(=O)(=O)O)cc1` (stereo not given): the GI50 in the assay on SF-295 is 13.9 µM (inactive); in the assay on MOLT-4, 22.1 µM (inactive); in the assay with PC-3, 53.7 µM (inactive); in the assay with EKVX, 30.4 µM (inactive); in the assay on RPMI-8226, 24.9 µM (inactive); in the assay with M14 it was 18.7 µM (inactive). For the same molecule, the GI50 is 55.3 µM (inactive) in the assay with Hs-578T; 21.5 µM (inactive) in the assay with NCI-H522; 29.6 µM (inactive) with MDA-N; 34.4 µM (inactive) in the assay with UACC-257; 18.3 µM (inactive) in the assay with 786-0; 30.4 µM (inactive) with KM12. Further, the GI50 in the assay on HOP-62 is 77.8 µM (inactive); in the assay with UACC-62, 37.3 µM (inactive); in the assay with K562, 22.9 µM (inactive); with SNB-19 it was 83.9 µM (inactive); with A549, 41.4 µM (inactive); in the assay with SF-539 it was 19.9 µM (inactive). Also, the GI50 was 27.5 µM (inactive) with MDA-MB-231 and 66.1 µM (inactive) in the assay on DU-145.
On to `C/C=C(/CBr)CCC(Br)C(C)(C)Cl.C/C=C(\CBr)CCC(Br)C(C)(C)Cl` (stereo not given), for which the GI50 in the assay on SF-295, with MOLT-4, in the assay with PC-3, with EKVX, with RPMI-8226 and in the assay with M14 was > 10 µM (inactive) each time. Also, the GI50 in the assay with Hs-578T, in the assay with NCI-H522, in the assay on MDA-N, in the assay with UACC-257, in the assay on 786-0 and with KM12 was > 10 µM (inactive) in each case. Also, the GI50 with HOP-62, in the assay on K562, in the assay with SNB-19, with A549, with SF-539 and with MDA-MB-231 was > 10 µM (inactive) in each case. Also, the GI50 in the assay on DU-145 was > 10 µM (inactive).
For `N=C(N)SCCCN`, the GI50 in the assay on SF-295 is 21.6 µM (inactive); in the assay on MOLT-4, 0.368 µM (active); with PC-3, 15.6 µM (inactive); with EKVX, 35.4 µM (inactive); in the assay on RPMI-8226, 18.5 µM (inactive); in the assay with M14, 3.52 µM (inactive). The GI50 is 5.61 µM (inactive) with Hs-578T; 5.41 µM (inactive) in the assay on NCI-H522; 3.95 µM (inactive) in the assay on MDA-N; 5.4 µM (inactive) with UACC-257; 4.71 µM (inactive) in the assay with 786-0; 24.2 µM (inactive) in the assay with KM12. The GI50 in the assay with HOP-62 was 12.1 µM (inactive); with UACC-62, 17.6 µM (inactive); with K562 it was 6.03 µM (inactive); in the assay on SNB-19, 20.7 µM (inactive); in the assay on A549, 37.7 µM (inactive); in the assay on SF-539 it was 5.81 µM (inactive). Also, the GI50 is 3.3 µM (inactive) in the assay on MDA-MB-231 and 20.4 µM (inactive) in the assay on DU-145.
For the molecule `N#Cc1nc(/C=C/c2nc(C#N)c(N)o2)oc1N`, the GI50 in the assay with SF-295, with PC-3, with EKVX, in the assay on RPMI-8226, with M14 and in the assay with Hs-578T was > 10 µM (inactive) in each case. Moreover, the GI50 in the assay with NCI-H522, in the assay with MDA-N, in the assay with UACC-257, in the assay on 786-0, in the assay with KM12 and with HOP-62 was > 10 µM (inactive) in each case. The GI50 in the assay with UACC-62, in the assay on K562, in the assay with SNB-19, in the assay on A549, in the assay on SF-539 and in the assay on MDA-MB-231 was > 10 µM (inactive) throughout. The GI50 in the assay with DU-145 is > 10 µM (inactive).
For the molecule `O=c1oc2ccc([N+](=O)[O-])cc2c(Nc2ccc3c(c2)Sc2ccccc2O3)c1[N+](=O)[O-]`, the GI50 in the assay on SF-295 is 38.2 µM (inactive); with PC-3, 19.5 µM (inactive); with EKVX it was 25.9 µM (inactive); in the assay on RPMI-8226, 9.2 µM (inactive); in the assay on M14, 19.4 µM (inactive); in the assay with Hs-578T, 37 µM (inactive). In addition, the GI50 in the assay with NCI-H522 is 17.6 µM (inactive); with MDA-N it was 28.6 µM (inactive); in the assay on UACC-257 it was 23.2 µM (inactive); in the assay on 786-0, 20.3 µM (inactive); in the assay with KM12 it was 21.5 µM (inactive); in the assay with HOP-62, 21.3 µM (inactive). Besides, the GI50 with UACC-62 was 15 µM (inactive); in the assay on K562, 24.2 µM (inactive); in the assay on SNB-19 it was 17.9 µM (inactive); in the assay with A549, 24.9 µM (inactive); with SF-539 it was 19.8 µM (inactive); with MDA-MB-231, 18.6 µM (inactive). Moreover, the GI50 in the assay on DU-145 is 36.7 µM (inactive).
As to `COC(=O)c1c(O)ccc2c1c1c(n2CCc2ccccc2)C(=O)c2ccccc2C1=O`, the GI50 with SF-295 was 19.1 µM (inactive); in the assay on MOLT-4, 4.06 µM (inactive); in the assay with PC-3, 11.6 µM (inactive); with EKVX, 20.7 µM (inactive); with RPMI-8226, 7.03 µM (inactive); with M14, 15.4 µM (inactive). The GI50 in the assay with Hs-578T was 13.3 µM (inactive); in the assay with NCI-H522 it was 7.08 µM (inactive); with MDA-N, 10.2 µM (inactive); in the assay on UACC-257, 17.7 µM (inactive); with 786-0, 16.7 µM (inactive); with KM12, 12.2 µM (inactive). Besides, the GI50 in the assay on HOP-62 is 21.4 µM (inactive); in the assay with K562, 8.38 µM (inactive); with SNB-19, 17.5 µM (inactive); in the assay on A549, 8.97 µM (inactive); with SF-539 it was 16.7 µM (inactive); in the assay on MDA-MB-231, 14.6 µM (inactive). Moreover, the GI50 in the assay with DU-145 was 14.4 µM (inactive).
